Here are results for one molecule from patent US10973758B2 (O.D. Ocular Discovery Ltd., priority 2013, dated 2021).

Where two headings read alike, the source gives them in different places.

The conditions of data set [1]: cited from earlier work; for peak plasma level: oral.
The test system of another data set is thrombus formation. To be noted: arterial circulation of the brain, rabbit model; cited from earlier work.
The nature of data set [2]: Dissolution in pH-adjusted aqueous solution. It is filed as physicochemical. Conditions: pH adjusted to ˜6.6 (6.5-6.7). An excerpt: The natural pH of tear fluid is 7.4; however, discomfort for the user will not be felt as long as the pH of the administered medication stays in the range of 6.6-7.8 (Sampath Kumar et al., “Recent Challenges and Advances in Ophthalmic Drug Delivery System,” in The Pharma Innovation, Vol. 1, No. 4 (2012)). Others administer eye drops at a pH of 5.5 and find this pH to be optimal.

The test system of the next data set is nitric oxide levels. Conditions: cited from earlier work.
The subject of the next data set is cAMP levels. Conditions: in-vitro, in comparison to a control; cited from earlier work.
The conditions of data set [3]: cited from earlier work.
Data set [4] has as its system ocular inflammatory disease. Conditions: cited from earlier work.

Regarding `OCCN(CCO)c1nc(N2CCCCC2)c2nc(N(CCO)CCO)nc(N3CCCCC3)c2n1` [dipyridamole, 2,6-bis (diethanolamino)-4,8-dipiperidinopyrimido [5,4-d] pyrimidine], the “half-life, third phase of tri-exponential decline” value in data set [1] (IV or oral 20-50 mg, followed up to 60 hours) was 10 to 12 h. In addition, the peak plasma level result in data set [1] (after a 25 mg dose) is “about 0.5 g/mL”; in data set [1] (after a 75 mg dose) it was 1.6 µg/mL. Besides, the distribution half-life entry in data set [1] (humans, after oral administration) is “about 3 hours”; in data set [1] (humans, intravenous (IV) administration), “about 25 minutes”. For the same molecule, the “time to peak plasma levels” value in data set [1] (humans, following oral administration) is 1 to 3 h. For the same molecule, the “effect on thrombus formation” value with thrombus formation is listed as “reduce thrombus formation”. In addition, the “dissolution in aqueous solution” value in data set [2] was “fully dissolves”. In the data set with nitric oxide levels, the “effect on nitric oxide levels” value is listed as “increases nitric oxide levels”. For the same molecule, the “effect on cAMP levels” value in the data set on cAMP levels is given as “negligible effect”. Further, in data set [3] (methanol), the “solubility in methanol” value is “very soluble”. Besides, the “solubility in water” value in data set [3] (water) is reported as “practically insoluble”. Also, the “effect in ocular inflammatory disease” value in data set [4] (systemically administered) is listed as “significant beneficial effect”; in data set [4] (topically administered (in liquid formulation)) it was “ineffective”.
